Test results reported in patent US9682960B2 (priority 2013, dated 2017).
Several values for one entry are separate records, joined by “and”; a condition that tells them apart may be missing. Equal values may be shown once. Read-outs that look alike come from different tables or passages of the source.

Tests used:
Androgen Receptor = assay: Overall classification (antiandrogen / SARM) in the models studied
Human Androgen Receptor = Human Androgen Receptor (Homo sapiens (Human), UniProt P10275); assay: Androgen receptor assay: [3H]R1881 displacement, cytosol of HEK-293 cells transfected with hAR (hydroxylapatite assay); type: binding
[1] = Oral absorption, Experiment 1: plasma levels after single oral 20 mg EM-9150/kg in intact male rats (LC-MS/MS); type: in vivo, rat; conditions: metabolite after oral EM-9150
Experimental: Intact 6 week-old male rats (Crl:CD(SD)) weighing 150-205 g were obtained from Charles-River Canada Inc. (St-Constant, Quebec, Canada) and housed up to 3 per cage in plastic bins in a temperature (19° C. to 25° C.)- and light (12 h light/day)-controlled environment. They were acclimatized to laboratory conditions for 2 weeks prior to the pharmacokinetic (PK) study. The rats were fed rodent chow (PMI Nutrition International Certified Rodent Chow No. 5CR4 (14% protein)) and tap water ad libitum. Animals were weighing 165-200 g at the time of dosing.
Blood samples (˜0.4 mL/timepoint/rat) were collected by jugular venipuncture at 0.5, 1, 2, 3.5, 7 and 24 h post-dosing from 3 animals/timepoint. Blood samples were put into tubes containing EDTA(K3) as anticoagulant and centrifuged at 4° C. for 10 min at 2700 rpm. The resulting plasma was separated and transferred to 2 polypropylene tubes, frozen immediately over dry ice and kept in a freezer set to maintain −80° C. until analysis.

[2] = system: Shionogi mouse mammary carcinoma cells; assay: In vitro androgenic/antiandrogenic activity: proliferation of Shionogi cells with or without DHT; type: cell-based
[3] = system: castrated (CX) immature male rats; assay: Systemic androgenic (agonistic) activity in orchidectomized (CX) immature male rats; type: in vivo, rat; conditions: for CX Agonistic activity % Stimulation Bulbo / CX Agonistic activity % Stimulation SV / CX Agonistic activity % Stimulation Prostate: 0.1 mg/rat/po, 7 days; for CX Agonistic activity % Stimulation Bulbo: bulbocavernosus muscles weight; for CX Agonistic activity % Stimulation SV: seminal vesicles weight; for CX Agonistic activity % Stimulation Prostate: ventral prostate weight
[4] = system: castrated (CX) immature male rats; assay: as above; type: in vivo; conditions: 0.1 mg/rat, s.c. (subcutaneous)
[5] = system: PSA levels in human prostatic carcinoma LNCaP cells; assay: Prostate specific antigen (PSA) in LNCaP cells with or without R1881; type: cell-based
Experimental: LNCaP cells were cultured as previously described (Qi et al. 2001). In brief, the LNCaP cells were cultured for 6 days in 1.0 ml RPMI 1640 supplemented with hormone-depleted 0.25% FCS before each experiment. At the start of the experiment, half of the medium (0.5 ml) was replaced with 0.5 ml of identical medium containing the appropriate concentrations of tested compounds, in the presence or absence of 1.0 nM of R1881. After 72 h of incubation of LNCaP cells with compounds, 0.5 ml of culture medium was removed for PSA determination. PSA levels were measured using the PSA [^125I] IRMA KIT (REF: RK-10CT) from Izotop (Institute of Isotopes Ltd, Budapest, Hungary).

[6] = Oral absorption, Experiment 2: plasma, intraprostatic and intramuscular concentrations after 0.5 mg EM-9150/animal in castrated male rats; type: in vivo; conditions: Sprague-Dawley, rat, po, 0.5 mg/animal
Experimental: Castrated male Sprague-Dawley rats (Crl:CD(SD)Br) weighing 275-375 g were used for pharmacokinetic studies. Animals were fasted (access to water only) from around 16 h00 the afternoon prior to the dosing day.
Blood samples (˜0.5 mL/timepoint) were collected by jugular venipuncture on animals under isoflurane anesthesia at 1, 2, 3, 4, 7 and 24 h post-dosing. Blood samples were put into tubes containing EDTA(K3) as anticoagulant and centrifuged at 4° C. for 10 min at 1700-2400 g. The resulting plasma was frozen on dry ice and kept at −80° C. pending analysis. […] Prostates and bulbocavernosus muscles were frozen in liquid nitrogen and kept at −80° C. until being used. A buffer and an ethanol-acetone solution were added to the tissue and homogenized with a Polytron. The supernatant was collected, evaporated to dryness and reconstituted in buffer.
Intraprostatic and intramuscular concentrations of the compounds were also determined by LC-MS/MS.

Rat Androgen Receptor = Rat Androgen Receptor (Rattus norvegicus (Rat), UniProt P15207); assay: Androgen receptor assay: [3H]R1881 displacement, rat prostate cytosol; type: binding
Experimental: On the morning of the binding assay, ventral prostates collected from 24 h-gonadectomized rats were homogenized in buffer A (1 g of tissue in 5 mL) and the homogenate was centrifuged as described above.
Androgen binding is measured using the hydroxylapatite (HAP) assay. In brief, the radioactive steroid [^3H]R1881 solubilized in ethanol is diluted with buffer B (10 mM Tris-HCl, 1.5 mM EDTA disodium salt, 10 mM α-monothioglycerol, pH 7.4). Aliquots of the cell or prostate cytosol preparation (0.1 ml) are then incubated with 5 nM [^3H]R1881 (0.1 ml, ˜100 000 cpm) in the presence or absence of the indicated concentrations of unlabeled compounds (0.1 ml, prepared in buffer B containing 30% ethanol) for 16-18 h at 0-4° C. Triamcinolone acetonide (TAC; 100 nM) is added to mask progesterone receptors. Unbound steroids are separated by incubation for 40 min at 0-4° C. with 0.3 ml HAP prepared in buffer P (50 mM Tris-HCl, 10 mM KH2PO4, pH 7.4). After incubation with HAP and 10 min of centrifugation at 1000×g, the pellet is washed 3 times with 1 ml of buffer P. Thereafter, the radioactivity is extracted from the pellet by incubation at room temperature for 60 min with 1 ml of ethanol. After centrifugation, the supernatant is decanted into a scintillation vial and the pellet is extracted again with ethanol. After the addition of scintillation liquid, the radioactivity is measured in a liquid scintillation counter.
Relative binding affinity (RBA) was calculated by the following formula: RBA (%) [IC50(R1881)/IC50 (compound)]×100 B—In Vitro Assay of Androgenic/Antiandrogenic Activity

Chain of Rat Androgen Receptor (P15207 whole entry, looked up): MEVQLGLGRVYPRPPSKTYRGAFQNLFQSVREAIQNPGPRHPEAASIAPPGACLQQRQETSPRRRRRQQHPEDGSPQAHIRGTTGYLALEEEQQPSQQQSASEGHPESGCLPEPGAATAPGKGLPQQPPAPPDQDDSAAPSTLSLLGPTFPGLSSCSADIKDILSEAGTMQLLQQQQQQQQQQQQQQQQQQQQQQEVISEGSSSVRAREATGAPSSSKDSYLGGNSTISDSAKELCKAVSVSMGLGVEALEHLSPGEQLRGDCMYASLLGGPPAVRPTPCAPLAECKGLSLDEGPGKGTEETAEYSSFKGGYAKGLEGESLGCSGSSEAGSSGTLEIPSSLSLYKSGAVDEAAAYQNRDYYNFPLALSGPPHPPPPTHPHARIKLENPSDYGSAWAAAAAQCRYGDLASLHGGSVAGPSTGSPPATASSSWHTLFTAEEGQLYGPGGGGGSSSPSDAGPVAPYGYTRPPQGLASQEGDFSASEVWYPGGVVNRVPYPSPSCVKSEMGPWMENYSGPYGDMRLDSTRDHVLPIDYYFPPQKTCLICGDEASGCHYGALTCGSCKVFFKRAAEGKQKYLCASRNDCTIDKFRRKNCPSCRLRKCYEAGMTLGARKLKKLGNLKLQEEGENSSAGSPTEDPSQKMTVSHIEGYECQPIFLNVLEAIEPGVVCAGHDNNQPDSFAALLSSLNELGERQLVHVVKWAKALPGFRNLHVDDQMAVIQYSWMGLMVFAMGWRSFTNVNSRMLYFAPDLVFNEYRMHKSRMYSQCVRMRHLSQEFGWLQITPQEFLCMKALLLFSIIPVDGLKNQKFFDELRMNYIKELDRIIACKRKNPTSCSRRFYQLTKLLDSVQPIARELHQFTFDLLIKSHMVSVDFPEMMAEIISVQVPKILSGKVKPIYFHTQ
Chain of Human Androgen Receptor (P10275 whole entry): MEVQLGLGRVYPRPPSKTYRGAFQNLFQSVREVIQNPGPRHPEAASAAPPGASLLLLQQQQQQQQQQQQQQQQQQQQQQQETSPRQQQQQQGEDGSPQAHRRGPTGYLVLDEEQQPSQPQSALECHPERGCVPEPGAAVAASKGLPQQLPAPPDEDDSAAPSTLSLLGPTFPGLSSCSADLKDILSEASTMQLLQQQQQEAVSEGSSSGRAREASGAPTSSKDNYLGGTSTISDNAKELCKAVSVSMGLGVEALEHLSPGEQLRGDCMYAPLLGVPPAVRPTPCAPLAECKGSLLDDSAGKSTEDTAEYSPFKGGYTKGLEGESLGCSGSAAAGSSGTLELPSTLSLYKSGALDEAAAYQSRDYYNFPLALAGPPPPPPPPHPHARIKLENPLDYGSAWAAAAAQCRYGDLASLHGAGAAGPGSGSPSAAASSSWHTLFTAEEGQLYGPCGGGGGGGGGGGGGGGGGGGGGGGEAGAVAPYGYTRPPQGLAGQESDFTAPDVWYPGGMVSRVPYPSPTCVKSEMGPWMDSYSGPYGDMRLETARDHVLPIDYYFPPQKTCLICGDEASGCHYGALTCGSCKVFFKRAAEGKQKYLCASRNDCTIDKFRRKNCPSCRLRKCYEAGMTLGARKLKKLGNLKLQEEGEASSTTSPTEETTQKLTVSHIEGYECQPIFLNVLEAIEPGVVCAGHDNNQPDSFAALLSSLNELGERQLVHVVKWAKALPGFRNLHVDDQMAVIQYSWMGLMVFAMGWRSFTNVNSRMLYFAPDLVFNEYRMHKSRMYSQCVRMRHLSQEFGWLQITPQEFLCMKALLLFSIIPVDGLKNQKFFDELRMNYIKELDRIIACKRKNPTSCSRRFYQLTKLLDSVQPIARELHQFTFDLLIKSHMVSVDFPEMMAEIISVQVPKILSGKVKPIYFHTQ

CC1(C)NC(=O)N(c2ccc(C#N)c(Cl)c2)C1=O [EM-9260]
classification as antiandrogen or SARM (in words) (Androgen Receptor): antiandrogens | Human Androgen Receptor Binding RBA (%) R1881 = 100 (Human Androgen Receptor; relative binding affinity, R1881 = 100, […]): ~0.1% | share of the plasma exposure of EM-9150 [1]: approximately 90% | IC50 ([2]; Mus musculus, read-out: Shionogi Antiandrogenic Activity IC50, DHT (0.3 nM)-stimulated cell number): ~0.1 µM | CX Agonistic activity % Stimulation Bulbo [3]: 4% | CX Agonistic activity % Stimulation SV [3]: 2% | CX Agonistic activity % Stimulation Prostate [3]: 0%

C[C@]12CC[C@H]3[C@@H](CCC4=CC(=O)CC[C@@]43C)[C@@H]1CC[C@@H]2O [Testosterone]
CX Agonistic activity % Stimulation Bulbo [4]: 171% | CX Agonistic activity % Stimulation Prostate [4]: 99%

CC1(C)C(=O)N(c2ccc(C#N)c(Cl)c2)C(=O)N1CCCOc1ccc(-c2cc[n+]([O-])cc2)cc1Cl [EM-9156]
classification as antiandrogen or SARM (in words) (Androgen Receptor): antiandrogens | inhibition at 0.1 µM ([5]; Homo sapiens, LNCaP, read-out: LNCaP Cells Antiandrogenic activity (PSA) % inhibition at 10^−7M, R1881-stimulated, 10^−7M of compound): ~50% | times more potent than bicalutamide in blocking R1881-stimulated PSA secretion ([5]; LNCaP, versus bicalutamide): 9.2 times and 10 times | stimulation at 10^−7M of basal PSA levels in LNCaP cells (in words) ([5]; basal (no R1881), 10^−7M): absence of stimulation | concentration at 7 h ([6]; bulbocavernosus muscles, read-out: intramuscular concentration): 12.7 ng/g | concentration at 7 h ([6]; plasma, read-out: plasma concentration): 22.3 ng/mL | concentration at 7 h ([6]; ventral prostate, read-out: intraprostatic concentration): 19.3 ng/g | Rat Androgen Receptor Binding RBA (%) R1881 = 100 (Rat Androgen Receptor): 5.3% | times more potent than OH-flutamide in the rat AR assay (Rat Androgen Receptor; versus OH-flutamide): 53 times | times more potent than bicalutamide in the rat AR assay (Rat Androgen Receptor; versus bicalutamide): 27 times | times more potent than bicalutamide to displace R1881 from the human AR (Human Androgen Receptor; versus bicalutamide): 57 times | stimulation at 10^−7M on basal Shionogi cell proliferation (in words) ([2]; basal (no DHT), 10^−7M): absence of stimulation | CX Agonistic activity % Stimulation Bulbo [3]: 5% | CX Agonistic activity % Stimulation SV [3]: 0% | CX Agonistic activity % Stimulation Prostate [3]: 1% | agonistic activity on ventral prostate weight (in words) ([3]; daily oral dosing for 7 days, immature castrated rat): no agonistic activity
